Read-outs that look alike come from different tables or passages of the source. Ends that are not written are not given here.
Experiments:
Format in all cases: cell-based, mouse
BMDMs [1] = experiment: In vitro cell viability study (Quanti-Max) on BMDMs
Protocol: Primary bone marrow-derived macrophages (BMDMs) were isolated from female C57BL/6 mice and cultured for five to seven days in a medium supplemented with macrophage-colony stimulating factor (M-CSF) for differentiation. HEK293T cells were acquired from the American Type Culture Collection (ATCC). Both BMDMs and HEK293T cells were cultured in Dulbecco's modified Eagle's medium (DMEM, GenDEPOT Inc., USA) supplemented with 10% fetal bovine serum (FBS), penicillin (100 U/mL), and streptomycin (100 μg/mL).
BMDMs were plated on 96-well plates (SPL Life Science Co. Ltd., Republic of Korea) at a density of 2×10^4 cells/well and incubated in complete DMEM for 18 h. Thereafter, the cells were treated with various concentrations of H-T, H-R, P-T, P-M peptides, control, TMR, or TMR using Abs Lipo. After 48 h of incubation, the medium was replaced with 100 μl of DMEM and the Quanti-Max solution (10% of each media volume). After two hours of incubation at 37° C. and 5% CO2, the absorbance of the plates including the Quanti-Max solution was measured at 450 nm using the MMR SPARK® microplate reader (TECAN Group Ltd., Switzerland).

[2] = tested on: LPS-induced cytokine production in BMDMs; experiment: Cytokine ELISA in supernatant of LPS-treated BMDMs; details: LPS 100 ng/mL, 18 h
Description: FIG. 2. Preparation of TLR4/MD2/RAGE-interacting motifs of HMGB1 or PTX3; • (A and B) Schematic diagram of HMGB1 (A) and PTX3 (B) domains. Glutathione s-transferase (GST)-tagged truncates including the TLR4-, RAGE-, or MD2-binding domains of HMGB1 or PTX3 were constructed. […] HEK293T cells transfected with the GST-tagged constructs in combination with HA-TLR4, Myc-RAGE or His-MD2 were confirmed by GST-pulldown. Western blots of WCLs and eluates after GST-pulldown are shown, using glyceraldehyde 3-phosphate dehydrogenase (GAPDH) as a loading control in WCLs. Based on the pulldown binding results, TLR4-, MD2-, and RAGE-targeted peptides were constructed and prepared as an H-T, H-R, P-T, or P-M peptide (indicated in panels A and B); • (C) BMDMs were incubated with the H-T, H-R, P-T, or P-M peptide at the indicated concentrations for 48 h, and then cell viability was measured by a cell viability assay. […] They were immunoprecipitated with αFlag for two hours, separated by sodium dodecyl sulfate-polyacrylamide gel electrophoresis (SDS-PAGE), and evaluated by immunoblotting; • (E) Competition between rHMGB1 (top) or PTX3 (bottom) and the constructed peptides for their respective receptors. […] TNF-α, IL-6, IL-12p40, and IL-10 levels in the supernatant of the indicated peptide-treated BMDMs, along with LPS (100 ng/mL, 18 h), were determined by ELISA. […]

BMDMs [3] = experiment: Cytokine ELISA in BMDMs stimulated with recombinant alarmins; details: BMDMs treated with recombinant alarmin 2, 5 μg/mL
Description: FIG. 1. Interaction of extracellular high-mobility group protein B1 (HMGB1) and (pentraxin 3) PTX3 with toll-like receptor 4 (TLR4) or receptor for advanced glycation end products (RAGE) in murine macrophages; • (A and B) Release of HMGB1 (A) or PTX3 (B) from murine macrophages after stimulation with lipopolysaccharide (LPS). LPS-induced HMGB1 (A) or PTX3 (B) release from murine macrophages. Immunoblots (IB) for HMGB1 and PTX3 in the cell lysates in LPS-treated bone marrow-derived macrophages (BMDMs) and the supernatant at indicated time points after LPS (100 ng/ml); • (C and D) Interaction between HMGB1 (C) or PTX3 (D) with receptors thereof. HEK293T cells were transfected with constructs, and cell lysates were immunoprecipitated with a Flag-tag-specific antibody and analyzed by immunoblotting (IB) with the indicated antibodies. […] Immunoprecipitants and whole cel lysates (WCL) were analyzed by immunoblotting with the indicated antibodies; • (E) TNF-α, IL-6, IL-12p40, and IL-10 levels in the supernatant of LPS (100 ng/ml, 18 h) or recombinant alarmins (rHMGB1 or rPTX3, each (2, 5 μg/mL))-treated BMDMs determined by enzyme-linked immunosorbent assay (ELISA). The data shown represents at least three independent experiments (n≥3), and bars denote mean±SEM (****p<0.001), and significance was measured by two-way analysis of variance (ANOVA); […]

[4] = BMDMs, 48 h incubation, various concentrations

## AAYRAKGKPD [H-R]
BMDMs [1]; [4]
  viability of BMDMs: almost no impact

## ALAAVLEELR [P-M]
BMDMs [1]; [4]
  viability of BMDMs: almost no impact

## FKDPNAPKRP [H-T]
BMDMs [1]
  viability of BMDMs: almost no impact

## PAEARLTSAL [P-T]
BMDMs [1]; [4]
  viability of BMDMs: almost no impact

## TMR peptide: fusion peptide of SEQ ID NO: 2 to 5 joined by GG linkers, FKDPNAPKRPGGAAYRAKGKPDGGPAEARLTSALGGALAAVLEELR
[2]
  production of inflammatory cytokines (TNF-α, IL-6, IL-12p40): significantly reduced

## rPTX3: recombinant alarmin protein pentraxin 3 [reference compound]
BMDMs [3]
  levels of TNF-α, IL-6, IL-12p40 and IL-10: elevated levels

B1: rHMGB1: recombinant alarmin protein high-mobility group protein B1 (protein, UniProt P09429 1-215, looked up)
High mobility group protein B1: MGKGDPKKPRGKMSSYAFFVQTCREEHKKKHPDASVNFSEFSKKCSERWKTMSAKEKGKFEDMAKADKARYEREMKTYIPPKGETKKKFKDPNAPKRPPSAFFLFCSEYRPKIKGEHPGLSIGDVAKKLGEMWNNTAADDKQPYEKKAAKLKEKYEKDIAAYRAKGKPDAAKKGVVKAEKSKKKKEEEEDEEDEEDEEEEEDEEDEDEEEDDDDE
modifications: Flag tag
BMDMs [3]
  levels of TNF-α, IL-6, IL-12p40 and IL-10: elevated levels

Source: patent US20260159546A1, “PHARMACEUTICAL COMPOSITION FOR TREATING SEPSIS INCLUDING DUAL ALARMIN-RECEPTOR-SPECIFIC TARGETING PEPTIDE” (Industry-University Cooperation Foundation Hanyang …, priority 2024, published 2026)
